Converted amounts (≈) assume the structure as drawn. Counter-ions that a name gives are not always drawn. Like-named read-outs stand apart in the source and are kept apart here.
Columns and labels:
[1] = tested on: Staphylococcus aureus A321; assay: MIC, agar serial dilution test; type: cell-based
[2] = tested on: Klebsiella pneumoniae A809; assay: MIC, agar serial dilution test; type: cell-based
[3] = tested on: Diplococcus pneumoniae L 54; assay: MIC, agar serial dilution test; type: cell-based; details: Streptococcus pneumoniae
[4] = tested on: Staphylococcus aureus A55; assay: MIC, agar serial dilution test; type: cell-based
Brucella melitensis A488 = assay: microbe, parasite or virus in culture; type: cell-based; details: A488, 24 h
[5] = tested on: Staphylococcus aureus A355 (penicillinase-producing); assay: MIC, agar serial dilution test; details: 24 h
[6] = tested on: Pasteurella multocida A723; assay: MIC, agar serial dilution test; type: cell-based
[7] = tested on: Bacillus subtilis ATCC 6633; assay: MIC, agar serial dilution test; type: cell-based
[8] = tested on: Streptococcus haemolyticus A266; assay: MIC, agar serial dilution test; type: cell-based
[9] = tested on: Streptococcus faecalis L 80; assay: MIC, agar serial dilution test; type: cell-based; details: Enterococcus faecalis
[10] = tested on: Staphylococcus aureus L160a (penicillinase-producing); assay: MIC, agar serial dilution test; details: 24 h
[11] = Staphylococcus aureus, A321, 24 h
[12] = Klebsiella pneumoniae, A809, 24 h
[13] = Staphylococcus aureus, A55, 24 h
[14] = Pasteurella multocida, A723, 24 h
[15] = Bacillus subtilis, ATCC6633, 24 h
[16] = Staphylococcus aureus A321, 24 hours at 37° C, read-out: MIC
[17] = Klebsiella pneumoniae A809, 24 hours at 37° C, read-out: MIC
[18] = L54, Diplococcus pneumoniae L 54, 24 hours at 37° C, read-out: MIC
[19] = Staphylococcus aureus A55, 24 hours at 37° C, read-out: MIC
[20] = Pasteurella multocida A723, 24 hours at 37° C, read-out: MIC
[21] = ATCC6633, Bacillus subtilis ATCC 6633, 24 hours at 37° C, read-out: MIC
[22] = Streptococcus haemolyticus A266, 24 hours at 37° C, read-out: MIC
[23] = L80, Streptococcus faecalis L 80, 24 hours at 37° C, read-out: MIC

| SMILES | MIC [1, 11] | MIC [2, 12] | MIC ([3]; L54, 24 h) | MIC [4, 13] | MIC (Brucella melitensis A488) | MIC [5] | MIC [6, 14] | MIC [7, 15] | MIC ([8]; Streptococcus, A266, 24 h) | MIC ([9]; L80, 24 h) | MIC [10] | MIC [1, 16] | MIC [2, 17] | MIC [3, 18] | MIC [4, 19] | MIC [6, 20] | MIC [7, 21] | MIC [8, 22] | MIC [9, 23] |
| --- | --- | --- | --- | --- | --- | --- | --- | --- | --- | --- | --- | --- | --- | --- | --- | --- | --- | --- | --- |
| CC1=C(C(=O)O)N2C(=O)[C@@H](NC(=O)[C@H](N)c3ccccc3)[C@H]2SC1 [Cephalexine, Cephalexin, reference compound] | 1.5 µg/mL (≈ 4.32 µM) | 3 µg/mL (≈ 8.64 µM) | 3 µg/mL (≈ 8.64 µM) | 3 µg/mL (≈ 8.64 µM) | 6 µg/mL (≈ 17.3 µM) | 12.5 µg/mL (≈ 36 µM) | 3 µg/mL (≈ 8.64 µM) | 0.5 µg/mL (≈ 1.44 µM) | 0.25 µg/mL (≈ 0.72 µM) | 100 µg/mL (≈ 288 µM) | 12.5 µg/mL (≈ 36 µM) |  |  |  |  |  |  |  |  |
| O=C(Cc1cccs1)N[C@@H]1C(=O)N2C(C(=O)[O-])=C(C[n+]3ccccc3)CS[C@H]12 [Cephaloridine, Cephaloridin, reference compound] | 0.06 µg/mL (≈ 0.144 µM) | 3 µg/mL (≈ 7.22 µM) | 0.015 µg/mL (≈ 0.0361 µM) | 0.06 µg/mL (≈ 0.144 µM) | 3 µg/mL (≈ 7.22 µM) | 0.12 µg/mL (≈ 0.289 µM) | 1 µg/mL (≈ 2.41 µM) | 0.06 µg/mL (≈ 0.144 µM) | 0.015 µg/mL (≈ 0.0361 µM) | 12.5 µg/mL (≈ 30.1 µM) | 0.06 µg/mL (≈ 0.144 µM) |  |  |  |  |  |  |  |  |
| Cc1onc(-c2ccccc2Cl)c1C(=O)N[C@@H]1C(=O)N2[C@@H]1SC(C)(C)[C@@H]2C(=O)O [Cloxazilline, Cloxacillin, reference compound] |  |  |  |  | 100 µg/mL (≈ 229 µM) | 0.5 µg/mL (≈ 1.15 µM) |  |  |  |  | 1 µg/mL (≈ 2.29 µM) | 0.06 µg/mL (≈ 0.138 µM) | 6 µg/mL (≈ 13.8 µM) | 1.5 µg/mL (≈ 3.44 µM) | 0.12 µg/mL (≈ 0.275 µM) | 6 µg/mL (≈ 13.8 µM) | 0.25 µg/mL (≈ 0.574 µM) | 0.25 µg/mL (≈ 0.574 µM) | 25 µg/mL (≈ 57.4 µM) |
| Cc1c(-c2c(Cl)cccc2Cl)noc1CC(=O)NC1C(=O)N2C1SC(C)(C)C2C(=O)O (centres unmarked) [Example X, Sodium salt of 6-{[3-(2,6-dichloro)phenyl-4-methyl-isoxazol-5-yl]acetamido}penicillanic acid] |  |  |  |  | 3 µg/mL | 3 µg/mL |  |  |  |  | 0.5 µg/mL | 0.03 µg/mL | > 100 µg/mL | 0.02 µg/mL | 0.03 µg/mL | 3 µg/mL | 0.005 µg/mL | 0.006 µg/mL | 0.25 µg/mL |
| CC1(C)SC2C(NC(=O)Cc3onc(-c4c(Cl)cccc4Cl)c3C#N)C(=O)N2C1C(=O)O (centres unmarked) [Example XV, Sodium salt of 6-{[3-(2,6-dichloro)phenyl-4-cyano-isoxazol-5-yl]acetamido}penicillanic acid] |  |  |  |  | 6 µg/mL | 12.5 µg/mL |  |  |  |  | 12.5 µg/mL | 1 µg/mL | > 100 µg/mL | 0.03 µg/mL | 0.5 µg/mL | 12.5 µg/mL | 0.25 µg/mL | 0.06 µg/mL | 0.5 µg/mL |
| CC1(C)SC2C(NC(=O)Cc3cc(C45CC6CC(CC(C6)C4)C5)no3)C(=O)N2C1C(=O)O (centres unmarked) [Example XVI, Sodium salt of 6-{[3-(1)adamantyl-isoxazol-5-yl]acetamido} penicillanic acid] |  |  |  |  | 3 µg/mL | 12.5 µg/mL |  |  |  |  | 12.5 µg/mL | 0.03 µg/mL | > 100 µg/mL | 0.06 µg/mL | 0.5 µg/mL | 6 µg/mL | 0.03 µg/mL | < 0.015 µg/mL | 0.25 µg/mL |
| CC1(C)SC2C(NC(=O)C(NC(=O)OCc3ccc([N+](=O)[O-])cc3)c3cc(-c4c(Cl)cccc4Cl)no3)C(=O)N2C1C(=O)O (stereo not drawn) [Example XVII, 6-{-α-p-nitro-benzyloxycarbonylamino-[3-(2,6-dichloro)phenylisoxazol-5-yl]acetamido}penicillanic acid] |  |  |  |  | 25 µg/mL (≈ 37.6 µM) | 12.5 µg/mL (≈ 18.8 µM) |  |  |  |  | 6 µg/mL (≈ 9.03 µM) | 1 µg/mL (≈ 1.5 µM) | > 100 µg/mL | 0.5 µg/mL (≈ 0.752 µM) | 1 µg/mL (≈ 1.5 µM) | 50 µg/mL (≈ 75.2 µM) | 0.5 µg/mL (≈ 0.752 µM) | 0.06 µg/mL (≈ 0.0903 µM) | 3 µg/mL (≈ 4.51 µM) |
| CC1(C)SC2C(NC(=O)C(N)c3cc(-c4c(Cl)cccc4Cl)no3)C(=O)N2C1C(=O)O (stereo not drawn) [Example XVIII, 6-{α-amino-[3-(2,6-dichloro)phenyl-isoxazol-5-yl]acetamido} penicillanic acid] |  |  |  |  | 0.5 µg/mL (≈ 1.03 µM) | 12.5 µg/mL (≈ 25.8 µM) |  |  |  |  | 12.5 µg/mL (≈ 25.8 µM) | 0.12 µg/mL (≈ 0.247 µM) | > 100 µg/mL | 0.12 µg/mL (≈ 0.247 µM) | 0.25 µg/mL (≈ 0.515 µM) | 6 µg/mL (≈ 12.4 µM) | 0.06 µg/mL (≈ 0.124 µM) | < 0.015 µg/mL | 1 µg/mL (≈ 2.06 µM) |
| CC1(C)SC2C(NC(=O)C(C(N)=O)c3cc(-c4c(Cl)cccc4Cl)no3)C(=O)N2C1C(=O)O (stereo not drawn) [Example XX, 6-{α-carbamyl-[3-(2,6-dichloro)phenyl-isoxazol-5-yl]acetamido} penicillanic acid] |  |  |  |  | 3 µg/mL (≈ 5.84 µM) | 3 µg/mL (≈ 5.84 µM) |  |  |  |  | 3 µg/mL (≈ 5.84 µM) | 0.25 µg/mL (≈ 0.487 µM) | > 100 µg/mL | 0.06 µg/mL (≈ 0.117 µM) | 0.25 µg/mL (≈ 0.487 µM) | 6 µg/mL (≈ 11.7 µM) | 0.25 µg/mL (≈ 0.487 µM) | 0.03 µg/mL (≈ 0.0584 µM) | 0.5 µg/mL (≈ 0.974 µM) |
| Cc1cc(CC(=O)NC2C(=O)N3[C@@H]2SC(C)(C)[C@@H]3C(=O)O)on1 (some centres unmarked) [Example XXI, 6-{[3-methyl-isoxazol-5-yl]acetamido}penicillanic acid] |  |  |  |  | 3 µg/mL (≈ 8.84 µM) | 6 µg/mL (≈ 17.7 µM) |  |  |  |  | 3 µg/mL (≈ 8.84 µM) | 0.25 µg/mL (≈ 0.737 µM) | > 100 µg/mL | 1.5 µg/mL (≈ 4.42 µM) | 0.5 µg/mL (≈ 1.47 µM) | 1.5 µg/mL (≈ 4.42 µM) | 0.06 µg/mL (≈ 0.177 µM) | 0.03 µg/mL (≈ 0.0884 µM) | 3 µg/mL (≈ 8.84 µM) |
| CCOc1ccc2ccccc2c1C(=O)N[C@@H]1C(=O)N2[C@@H]1SC(C)(C)[C@@H]2C(=O)O [Nafcilline, Nafcillin, reference compound] |  |  |  |  | 6 µg/mL (≈ 14.5 µM) | 1 µg/mL (≈ 2.41 µM) |  |  |  |  | 0.5 µg/mL (≈ 1.21 µM) | 0.25 µg/mL (≈ 0.603 µM) | 12.5 µg/mL (≈ 30.2 µM) | 0.06 µg/mL (≈ 0.145 µM) | 0.12 µg/mL (≈ 0.29 µM) | 12.5 µg/mL (≈ 30.2 µM) | 0.5 µg/mL (≈ 1.21 µM) | 0.015 µg/mL (≈ 0.0362 µM) | 10 µg/mL (≈ 24.1 µM) |
| CC(=O)OCC1=C(C(=O)O)N2C(=O)C(NC(=O)Cc3cc(C(C)(C)C)no3)C2SC1 (centres unmarked) [XXXIV, sodium 7-[3-(t-butyl)isoxazole-5-ylacetamido]-3-acetoxymethyl 3-cephem-4-carboxylate] |  |  |  |  |  | 1.5 µg/mL |  |  |  |  |  | 1.5 µg/mL | 12.5 µg/mL | 0.25 µg/mL |  | 3 µg/mL | 0.75 µg/mL |  | 12.5 µg/mL |

From patent US4010264A, “7-[3-Substituted isoxazol-5-yl]-acetamido-cephalosporanic acids and their anti-bacterial use” (Koninklijke Nederlandsche Gist-en Spiritusfabriek N.V., priority 1970, dated 1977)
